Test results taken from patent publication US7157083B2, “Compositions and methods for treating retroviral infections” (priority 1998, dated 2007).

Columns and labels:
[1] = system: ROJO (low passage HIV-1); test: Study 2 hyaluronidase chronic overlay testing: RT activity after secondary ROJO infection; assay type: cell-based
Description: (§1) Percent virus control (% VC) in the following tables is the mean RT activity (cpm) as a percentage of a virus control. Percent cell control (% CC) is the mean XTT absorbance as a percentage of a cell control.
Method A. Peripheral blood monocytes were isolated from normal HIV-1 negative donors by plastic adherence following ficall hypaque purification of the buffy coat PBMCs. For isolation of adherent cells, 3×10^6/ml non-PHA stimulated peripheral blood cells were resuspended in Hanks buffered saline (with calcium and magnesium) supplemented with 10% human AB serum, and 200 μl per well placed in a 96 well lat bottomed microtiter plate. The cells were incubated overnight at 37° C., 5% CO2. Non-adherent cells were removed by washing six time with a Ca^++, Mg^++ containing medium. The adherent cells after the final wash were supplemented with RPMI 1640 supplemented with 15% fetal bovine serum (heat inactivated), 2 mM L-glutamine, 100 U/mL penicillin, 100 μg/mL streptomycin and 10 μg/mL gentamycin, and cultured for 7 days. The cultures were washed one final time before addition of compounds to remove any non-adherent cells. The cultures are carefully monitored for confluency prior to assay.
Reverse transcriptase (RT) activity was measured in cell-free supernatants. Tritiated thymidine triphosphate (NEN) (TTP) was resuspended in distilled H2O at […]. Poly rA and oligo dT were prepared as a stock solution which was kept at −20° C. The RT reaction buffer was prepared fresh on a daily basis and consists of 125 μL 1.0 M EGTA, 125 μL d H2O, 110 μL 10% SDS, 50 μL 1.0 M Tris (pH 7.4), 50 μL 1.0 M DTT, and 40μ1.0 M MgCl2. These three solutions were mixed together in a ratio of 2 parts TTP, 1 part poly rA:oligo dT, and 1 part reaction buffer. Ten microliters of this reaction mixture was placed in a round bottom microtiter plate and 15 μL of virus containing supernatant was added and mixed. The plate was incubated at 37° C. in a water bath with a solid support to prevent submersion of the plate and incubated for 60 minutes. Following reaction, the reaction volume was spotted onto pieces of DE81 paper, washed 5 times for 5 minutes each in a 5% sodium phosphate buffer, 2 times for 1 minute each in distilled water, 2 times for 1 minute each in 70% ethanol, and then dried. Opti-Fluor O was added to each sample and incorporated radioactivity was quantitated utilizing a Wallace 1450 Microbetaplus liquid scintillation counter.
Assay method. Seven day old Rojo chronically infected (and uninfected control) PBMCs are pre-treated with two fold dilutions of HLDA-1 for 48 hours. Treated cells are 2× washed with PBS and overlayed onto seven day old macrophages for 72 hours at which time the PBMCs were washed off and replaced with fresh uninfected pha blast PBMCs in the presence of IL-1 (5.0 ng/mL) and IL-2 (20U/mL). Overlayed cells are incubated for 48 hours 50% of cells transferred to a fresh 96 well plate, and then both the original and transfer plate infected with ROJO at a standard MOI. Samples for reverse transcriptase and toxicity testing were processed on day 7 post secondary infection.

[2] = system: ROJO (low passage HIV-1); test: Study 4 sensitization, Turpin and standard macrophages: RT activity after Rojo challenge; assay type: cell-based; conditions: Rojo Sensitized
Experimental: as §1
The macrophage plates were then washed with HBSS multiple times. Fresh mixed pha blast PBMCs (5×10e4/well) were placed on the macrophage cells, allowed to incubate for 72 hours and then harvested and reset in a fresh 96 well plate. The PBMCs were then challenged overnight with the respective virus (IIIB or Rojo) at a standard MOI for that virus. The PBMCs were 5× in plate spin washed with DPBS, incubated 24 hours, at which time 5×10e4 fresh pha blast PBMCs/well were added. The culture was incubated an additional 6 days and then assayed for RT activity.
Where viability corrections were conducted, they were performed by dividing the RT CPM value by the toxicity absorbance in order to compensate for well to well variations noted in the cell titer toxicity noted.

Hyaluronidase
RT activity % VC ([1]; Table 4, 2.5 units/mL, Rojo chronic PBMCs, Macrophage + PBMCs): 207.4% | RT activity % VC ([1]; Table 4, 2.5 units/mL, Rojo chronic PBMCs, Transfer PBMCs): 183.0% | RT activity % VC ([1]; Table 4, 2.5 units/mL, control uninfected PBMCs, Macrophage + PBMCs): 102.3% | RT activity % VC ([1]; Table 4, 2.5 units/mL, control uninfected PBMCs, Transfer PBMCs): 47.3% | RT activity % VC ([1]; Table 4, 3.75 units/mL, Rojo chronic PBMCs, Macrophage + PBMCs): 124.1% | RT activity % VC ([1]; Table 4, 3.75 units/mL, Rojo chronic PBMCs, Transfer PBMCs): 126.5% | RT activity % VC ([1]; Table 4, 3.75 units/mL, control uninfected PBMCs, Macrophage + PBMCs): 111.5% | RT activity % VC ([1]; Table 4, 3.75 units/mL, control uninfected PBMCs, Transfer PBMCs): 34.4% | RT activity % VC ([1]; Table 4, 5 units/mL, Rojo chronic PBMCs, Macrophage + PBMCs): 22.2% | RT activity % VC ([1]; Table 4, 5 units/mL, Rojo chronic PBMCs, Transfer PBMCs): 24.2% | RT activity % VC ([1]; Table 4, 5 units/mL, control uninfected PBMCs, Macrophage + PBMCs): 71.1% | RT activity % VC ([1]; Table 4, 5 units/mL, control uninfected PBMCs, Transfer PBMCs): 18.0% | RT activity % VC ([1]; Table 4, 7.5 units/mL, Rojo chronic PBMCs, Macrophage + PBMCs): 12.7% | RT activity % VC ([1]; Table 4, 7.5 units/mL, Rojo chronic PBMCs, Transfer PBMCs): 21.9% | RT activity % VC ([1]; Table 4, 7.5 units/mL, control uninfected PBMCs, Macrophage + PBMCs): 56.4% | RT activity % VC ([1]; Table 4, 7.5 units/mL, control uninfected PBMCs, Transfer PBMCs): 26.8% | RT activity % VC ([1]; Table 4, 10 units/mL, Rojo chronic PBMCs, Macrophage + PBMCs): 14.8% | RT activity % VC ([1]; Table 4, 10 units/mL, Rojo chronic PBMCs, Transfer PBMCs): 21.5% | RT activity % VC ([1]; Table 4, 10 units/mL, control uninfected PBMCs, Macrophage + PBMCs): 56.2% | RT activity % VC ([1]; Table 4, 10 units/mL, control uninfected PBMCs, Transfer PBMCs): 21.2% | RT activity % VC ([1]; Table 4, 15 units/mL, Rojo chronic PBMCs, Macrophage + PBMCs): 13.3% | RT activity % VC ([1]; Table 4, 15 units/mL, Rojo chronic PBMCs, Transfer PBMCs): 21.9% | RT activity % VC ([1]; Table 4, 15 units/mL, control uninfected PBMCs, Macrophage + PBMCs): 40.2% | RT activity % VC ([1]; Table 4, 15 units/mL, control uninfected PBMCs, Transfer PBMCs): 20.6% | RT activity % VC ([1]; Table 4, 20 units/mL, Rojo chronic PBMCs, Macrophage + PBMCs): 14.2% | RT activity % VC ([1]; Table 4, 20 units/mL, Rojo chronic PBMCs, Transfer PBMCs): 13.6% | RT activity % VC ([1]; Table 4, 20 units/mL, control uninfected PBMCs, Macrophage + PBMCs): 41.9% | RT activity % VC ([1]; Table 4, 20 units/mL, control uninfected PBMCs, Transfer PBMCs): 33.0% | RT activity % VC ([1]; Table 4, 30 units/mL, Rojo chronic PBMCs, Macrophage + PBMCs): 19.9% | RT activity % VC ([1]; Table 4, 30 units/mL, Rojo chronic PBMCs, Transfer PBMCs): 18.0% | RT activity % VC ([1]; Table 4, 30 units/mL, control uninfected PBMCs, Macrophage + PBMCs): 43.8% | RT activity % VC ([1]; Table 4, 30 units/mL, control uninfected PBMCs, Transfer PBMCs): 24.0% | RT activity % VC ([1]; Table 5, 2.5 units/mL, Rojo chronic PBMCs, Macrophage + PBMCs): 164.0% | RT activity % VC ([1]; Table 5, 2.5 units/mL, Rojo chronic PBMCs, Transfer PBMCs): 106.0% | RT activity % VC ([1]; Table 5, 2.5 units/mL, control uninfected PBMCs, Transfer PBMCs): 136.0% | RT activity % VC ([1]; Table 5, 3.75 units/mL, Rojo chronic PBMCs, Macrophage + PBMCs): 191.7% | RT activity % VC ([1]; Table 5, 3.75 units/mL, Rojo chronic PBMCs, Transfer PBMCs): 152.4% | RT activity % VC ([1]; Table 5, 3.75 units/mL, control uninfected PBMCs, Macrophage + PBMCs): 108.5% | RT activity % VC ([1]; Table 5, 3.75 units/mL, control uninfected PBMCs, Transfer PBMCs): 195.0% | RT activity % VC ([1]; Table 5, 5 units/mL, Rojo chronic PBMCs, Macrophage + PBMCs): 253.5% | RT activity % VC ([1]; Table 5, 5 units/mL, control uninfected PBMCs, Macrophage + PBMCs): 184.7% | RT activity % VC ([1]; Table 5, 5 units/mL, control uninfected PBMCs, Transfer PBMCs): 380.0% | RT activity % VC ([1]; Table 5, 7.5 units/mL, Rojo chronic PBMCs, Macrophage + PBMCs): 476.0% | RT activity % VC ([1]; Table 5, 7.5 units/mL, Rojo chronic PBMCs, Transfer PBMCs): 792.6% | RT activity % VC ([1]; Table 5, 10 units/mL, Rojo chronic PBMCs, Transfer PBMCs): 730.4% | RT activity % VC ([1]; Table 5, 10 units/mL, control uninfected PBMCs, Macrophage + PBMCs): 965.0% | RT activity % VC ([1]; Table 5, 20 units/mL, Rojo chronic PBMCs, Macrophage + PBMCs): 375.9% | RT activity % VC ([1]; Table 5, 20 units/mL, Rojo chronic PBMCs, Transfer PBMCs): 284.2% | RT activity % VC ([1]; Table 5, 20 units/mL, control uninfected PBMCs, Macrophage + PBMCs): 196.8% | RT activity % VC ([1]; Table 5, 20 units/mL, control uninfected PBMCs, Transfer PBMCs): 383.0% | RT activity % VC ([1]; Table 5, 30 units/mL, Rojo chronic PBMCs, Macrophage + PBMCs): 291.8% | RT activity % VC ([1]; Table 5, 30 units/mL, Rojo chronic PBMCs, Transfer PBMCs): 222.3% | RT activity % VC ([1]; Table 5, 30 units/mL, control uninfected PBMCs, Macrophage + PBMCs): 163.1% | RT activity % VC ([1]; Table 5, 30 units/mL, control uninfected PBMCs, Transfer PBMCs): 142.7% | RT activity % VC ([2]; 0.390625 μg/mL, Standard): 50.4% | RT activity % VC ([2]; 0.390625 μg/mL, Turpin): 69.6% | RT activity % VC ([2]; 0.78125 μg/mL, Standard): 59.9% | RT activity % VC ([2]; 0.78125 μg/mL, Turpin): 48.6% | RT activity % VC ([2]; 1.5625 μg/mL, Turpin): 61.1% | RT activity % VC ([2]; 3.125 μg/mL, Standard): 55.8% | RT activity % VC ([2]; 3.125 μg/mL, Turpin): 45.6% | RT activity % VC ([2]; 6.25 μg/mL, Standard): 57.7% | RT activity % VC ([2]; 6.25 μg/mL, Turpin): 39.4% | RT activity % VC ([2]; 25 μg/mL, Standard): 21.0% | RT activity % VC ([2]; 25 μg/mL, Turpin): 15.5% | RT activity % VC ([2]; viability corrected, 0.097656 μg/mL, Standard): 66.0% | RT activity % VC ([2]; viability corrected, 0.097656 μg/mL, Turpin): 94.1% | RT activity % VC ([2]; viability corrected, 0.390625 μg/mL, Standard): 52.2% | RT activity % VC ([2]; viability corrected, 0.78125 μg/mL, Standard): 55.1% | RT activity % VC ([2]; viability corrected, 0.78125 μg/mL, Turpin): 56.9% | RT activity % VC ([2]; viability corrected, 1.5625 μg/mL, Standard): 57.0% | RT activity % VC ([2]; viability corrected, 1.5625 μg/mL, Turpin): 69.1% | RT activity % VC ([2]; viability corrected, 3.125 μg/mL, Standard): 53.4% | RT activity % VC ([2]; viability corrected, 3.125 μg/mL, Turpin): 55.5% | RT activity % VC ([2]; viability corrected, 6.25 μg/mL, Standard): 56.6% | RT activity % VC ([2]; viability corrected, 6.25 μg/mL, Turpin): 48.5% | RT activity % VC ([2]; viability corrected, 25 μg/mL, Turpin): 25.6%
